{
  "source": "DBAASP",
  "assay_in_all_cases": "≥ marks a high value that may be exact or a test limit, other limits are often not marked, values filed in µg/mL are converted to µM",
  "key": {"[1]": {"system": "Candida albicans CGMCC 2.2086"}, "[2]": {"system": "Candida parapsilosis CGMCC 2.3989"}, "[3]": {"system": "Candida tropicalis CGMCC 2.1975"}, "Escherichia coli 078": {"system": "Escherichia coli 078"}, "Escherichia coli K88": {"system": "Escherichia coli K88"}, "Escherichia coli K99": {"system": "Escherichia coli K99"}, "Escherichia coli UB1005": {"system": "Escherichia coli UB1005"}, "[4]": {"system": "Pseudomonas aeruginosa ATCC 27853"}, "[5]": {"system": "Salmonella enterica subsp. enterica serovar Pullorum ATCC 7913"}, "[6]": {"system": "Salmonella enterica subsp. enterica serovar Typhimurium ATCC 14028"}, "[7]": {"system": "Salmonella enterica subsp. enterica serovar Typhimurium C77-31"}, "[8]": {"system": "Staphylococcus aureus ATCC 25923"}, "[9]": {"system": "Staphylococcus aureus ATCC 43300"}, "[10]": {"system": "Staphylococcus epidermidis ATCC 12228"}, "[11]": {"system": "Aeromonas salmonicida 97-4"}, "[12]": {"system": "Aeromonas salmonicida 99-1"}, "Candida albicans C627": {"system": "Candida albicans C627"}, "[13]": {"system": "Escherichia coli CGSC 4908"}, "Escherichia coli DC2": {"system": "Escherichia coli DC2"}, "[14]": {"system": "Pseudomonas aeruginosa K799"}, "[15]": {"system": "Pseudomonas aeruginosa Z61"}, "[16]": {"system": "Salmonella enterica serovar typhimurium MS7953s"}, "[17]": {"system": "Salmonella enterica subsp. enterica serovar Typhimurium ATCC 14028s"}, "[18]": {"system": "Staphylococcus aureus C623"}, "[19]": {"system": "Staphylococcus epidermidis C621"}, "Escherichia coli INV-a": {"system": "Escherichia coli INV-a"}, "[20]": {"system": "Lactococcus lactis MG1363"}, "Escherichia coli J2210": {"system": "Escherichia coli J2210"}, "Escherichia coli JJ2487": {"system": "Escherichia coli JJ2487"}, "Escherichia coli JW0013": {"system": "Escherichia coli JW0013"}, "Escherichia coli MC1061": {"system": "Escherichia coli MC1061"}, "Escherichia coli O157:H7": {"system": "Escherichia coli O157:H7"}, "[21]": {"system": "Salmonella enterica subsp. enterica serovar Enteritidis MH91989"}, "[22]": {"system": "Salmonella typhimurium SL1344"}},
  "data": [
    {"compound": "CC[C@H](C)[C@H](NC(=O)[C@H](CCCN=C(N)N)NC(=O)[C@H](C)NC(=O)[C@H](C)N)C(=O)N[C@H](C(=O)N[C@@H](CC(C)C)C(=O)N[C@@H](CCCN=C(N)N)C(=O)NCC(=O)N[C@@H](CCCN=C(N)N)C(=O)N[C@@H](Cc1ccccc1)C(=O)N[C@@H](CCCN=C(N)N)C(N)=O)[C@@H](C)CC", "note": "[AARIILRGRFR]", "values": [
      {"measurement": "MIC", "setting": "[1]", "value": "≥ 128", "unit": "µM"},
      {"measurement": "MIC", "setting": "[2]", "value": "≥ 64", "unit": "µM"},
      {"measurement": "MIC", "setting": "[3]", "value": 16, "unit": "µM"},
      {"measurement": "MIC", "setting": "Escherichia coli 078", "value": 4, "unit": "µM"},
      {"measurement": "MIC", "setting": "Escherichia coli K88", "value": 2, "unit": "µM"},
      {"measurement": "MIC", "setting": "Escherichia coli K99", "value": 2, "unit": "µM"},
      {"measurement": "MIC", "setting": "Escherichia coli UB1005", "value": 4, "unit": "µM"},
      {"measurement": "MIC", "setting": "[4]", "value": 16, "unit": "µM"},
      {"measurement": "MIC", "setting": "[5]", "value": 4, "unit": "µM"},
      {"measurement": "MIC", "setting": "[6]", "value": 4, "unit": "µM"},
      {"measurement": "MIC", "setting": "[7]", "value": 8, "unit": "µM"},
      {"measurement": "MIC", "setting": "[8]", "value": 16, "unit": "µM"},
      {"measurement": "MIC", "setting": "[9]", "value": 8, "unit": "µM"},
      {"measurement": "MIC", "setting": "[10]", "value": 8, "unit": "µM"}
    ]},
    {"compound": "CC[C@H](C)[C@H](NC(=O)CNC(=O)[C@H](Cc1cnc[nH]1)NC(=O)[C@H](CC(C)C)NC(=O)CNC(=O)[C@H](CC(C)C)NC(=O)[C@H](CCCCN)NC(=O)[C@H](Cc1ccccc1)NC(=O)[C@H](CC(C)C)NC(=O)[C@H](CCCCN)NC(=O)CNC(=O)[C@H](Cc1c[nH]c2ccccc12)NC(=O)[C@H](Cc1ccccc1)NC(=O)CN)C(=O)NCC(=O)N[C@@H](CC(C)C)C(=O)N[C@@H](CC(C)C)C(=O)N[C@@H](Cc1cnc[nH]1)C(=O)N[C@@H](CC(C)C)C(=O)N[C@@H](Cc1cnc[nH]1)C(=O)N[C@@H](CC(C)C)C(C)=O", "note": "[GFWGKLFKLGLHGIGLLHLHL]", "values": [
      {"measurement": "MIC", "setting": "[11]", "value": 6.79, "unit": "µM"},
      {"measurement": "MIC", "setting": "[12]", "value": 3.39, "unit": "µM"},
      {"measurement": "MIC", "setting": "Candida albicans C627", "value": 6.79, "unit": "µM"},
      {"measurement": "MIC", "setting": "[13]", "value": 3.39, "unit": "µM"},
      {"measurement": "MIC", "setting": "Escherichia coli DC2", "value": 3.39, "unit": "µM"},
      {"measurement": "MIC", "setting": "Escherichia coli UB1005", "value": 3.39, "unit": "µM"},
      {"measurement": "MIC", "setting": "[14]", "value": 3.39, "unit": "µM"},
      {"measurement": "MIC", "setting": "[15]", "value": 1.7, "unit": "µM"},
      {"measurement": "MIC", "setting": "[16]", "value": 1.7, "unit": "µM"},
      {"measurement": "MIC", "setting": "[17]", "value": 6.79, "unit": "µM"},
      {"measurement": "MIC", "setting": "[18]", "value": 1.7, "unit": "µM"},
      {"measurement": "MIC", "setting": "[19]", "value": 1.7, "unit": "µM"}
    ]},
    {"compound": "CC[C@H](C)[C@H](N)C(=O)N[C@@H](CC(N)=O)C(=O)N[C@@H](Cc1c[nH]c2ccccc12)C(=O)N[C@@H](CCCCN)C(=O)NCC(=O)N[C@H](C(=O)N[C@@H](C)C(=O)N[C@@H](CC(C)C)C(=O)N[C@@H](CCSC)C(=O)N[C@@H](C)C(=O)N[C@@H](CCCCN)C(=O)N[C@@H](CCCCN)C(=O)N[C@@H](CC(C)C)C(=O)N[C@@H](CC(C)C)C(N)=O)[C@@H](C)CC", "note": "[INWKGIALMAKKLL]", "values": [
      {"measurement": "MIC", "setting": "Escherichia coli INV-a", "value": 7, "unit": "µM"},
      {"measurement": "MIC", "setting": "[20]", "value": 2.5, "unit": "µM"}
    ]},
    {"compound": "CC[C@H](C)[C@H](NC(=O)[C@H](CCCN=C(N)N)NC(=O)[C@H](CCCN=C(N)N)NC(=O)[C@@H]1CCCN1C(=O)[C@@H]1CCCN1C(=O)[C@H](CCCN=C(N)N)NC(=O)[C@@H]1CCCN1C(=O)[C@H](CCCN=C(N)N)NC(=O)[C@@H]1CCCN1C(=O)[C@H](CCCN=C(N)N)NC(=O)[C@H](Cc1ccc(O)cc1)NC(=O)[C@@H]1CCCN1C(=O)[C@@H]1CCCN1C(=O)[C@H](CCCCN)NC(=O)[C@H](CC(=O)O)NC(=O)[C@@H](N)C(C)C)C(=O)N[C@@H](Cc1ccc(O)cc1)C(=O)N[C@@H](CC(N)=O)C(=O)N[C@@H](CCCN=C(N)N)C(N)=O", "note": "[VDKPPYRPRPRPPRRIYNR]", "values": [
      {"measurement": "MIC", "setting": "Escherichia coli J2210", "value": 0.16, "unit": "µM"},
      {"measurement": "MIC", "setting": "Escherichia coli JJ2487", "value": 0.16, "unit": "µM"},
      {"measurement": "MIC", "setting": "Escherichia coli JW0013", "value": 0.173, "unit": "µM"},
      {"measurement": "MIC", "setting": "Escherichia coli MC1061", "value": 0.0822, "unit": "µM"},
      {"measurement": "MIC", "setting": "Escherichia coli O157:H7", "value": 0.986, "unit": "µM"},
      {"measurement": "MIC", "setting": "[21]", "value": 0.246, "unit": "µM"},
      {"measurement": "MIC", "setting": "[22]", "value": 0.173, "unit": "µM"}
    ]}
  ]
}
